According to article PMC12703428, “Development of Granzyme A Turn‐ON Fluorescent Activity‐Based Probes” (Chembiochem, 2025):

Columns and labels:
[1] = biological target: T1, recombinant human GzmA (hGzmA) (Homo sapiens, UniProt P12544); experiment: In-gel fluorescence labeling of recombinant active hGzmA; assay type: biochemical; conditions: hGzmA 100 nM preincubated with inhibitor 5 μM 2 h, then ABPs 3–5 50 nM 2 h, 37 °C
T1 construct: active, mature form; purchased Enzo Life Sciences ALX-201-118-C010
T1 sequence (P12544 29-262): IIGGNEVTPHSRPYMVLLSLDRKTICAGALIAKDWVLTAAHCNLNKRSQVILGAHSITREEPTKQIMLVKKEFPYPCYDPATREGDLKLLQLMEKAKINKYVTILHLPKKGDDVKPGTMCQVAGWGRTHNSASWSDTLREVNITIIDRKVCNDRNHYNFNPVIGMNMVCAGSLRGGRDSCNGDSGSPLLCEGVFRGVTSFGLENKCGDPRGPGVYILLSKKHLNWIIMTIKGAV
Method: Figure 3 GzmA ABPs covalently and competitively label active human and mouse GzmA. […] Recombinant hGzmA (100 nM) was incubated with varying concentrations of each ABP at 37 °C. B) Competitive labeling of hGzmA. Recombinant hGzmA (100 nM) was preincubated with covalent inhibitors 1 or 2 (5 μM) for 2 h, followed by labeling with ABPs 3 –5 (50 nM) for 2 h at 37 °C. Note: Pro‐form of hGzmA (the first lane) is not effectively stained by SYPRO‐Ruby. C) Structure of qABP 6. D) Quenched natures of 5 and 6. […] F) Labeling of mGzmA (1 μM) with 5 and 6 (1 μM, 24 h, 37 °C). Protein samples were analyzed by SDS‐PAGE and in‐gel fluorescence scanning for Cy5 signal and SYPRO Ruby staining. […]
C. In-gel fluorescence imaging
For recombinant enzyme labeling, working solutions of hGzmA (purchased from R&D Systems, Cat. No. 2905-SE-010 for pro-from and Enzo Life Sciences, Cat. No.: ALX-201-118-C010 for active, mature form) were prepared by diluting a 12.6 µM stock in the following assay buffer: 50 […]
mM Tris, 100 mM NaCl, 5 mM CaCl2, 0.01% (v/v) Tween-20, pH 7.5. […]
In-gel fluorescence and
SYPRO-Ruby staining images were acquired on a Typhoon FLA9500 instrument, while western blot images were acquired on an AMHERST ImageQuant 800 instrument.
Conditions for probe/inhibitor treatment for in-gel fluorescence analysis: Inhibitors and probes were incubated with active (or pro-) GzmA followed by treatment with 4X SDS reducing sample buffer. Samples were then heated to 100 °C for 5 min, brought to room temperature, and centrifuged. 20 µL of each sample was loaded onto a 15% polyacrylamide gel, which was then subjected to electrophoresis followed by the acquisition of in-gel fluorescence images. GzmA labeling was confirmed by western blotting, while protein loading was confirmed with SYPRO-Ruby staining. Incubation conditions for each figure/experiment are described below:
Conditions for Figure 3A: For labeling comparison between 3, 4, and 5, 100 nM of human GzmA was incubated with various concentrations of each probe for 2 h at 37 °C. For time-dependent labeling, 50 nM of 5 was incubated with 100 nM of human GzmA at 37 °C for the specified durations. Final reaction volume for both was 20 µL.
Conditions for Figure 3B: 100 nM of human GzmA was incubated with DMSO or 5 µM of 1 or 2 for 2 h at 37 °C in Eppendorf tubes. 0.5 µL of a 2 µM solution of 3, 4, or 5 in DMSO was then spiked into the Eppendorf tube, yielding a final probe concentration of 50 nM. The solution was incubated for another 2 h at 37 °C. Final reaction volume was 20 µL.
Conditions for Figure 3E: 100 nM of human GzmA was incubated with various concentrations of 5 or 6, respectively, for 2 h at 37 °C. Final reaction volume was 20 µL.
Conditions for Figure 3F: 1 µM of mouse GzmA was incubated with 1 µM of 5 or 6, respectively, for 24 h at 37 °C. Final reaction volume was 20 µL.
Conditions for Figure 4A: 1 mg/mL of lysates was incubated with various concentrations of 5 or 6, respectively, for 1 h at 37 °C.
Conditions for Figure 4C: Various concentrations of probes 3-6 were incubated with 1x10^6 NK-92 cells for 2 h at 37 °C in a humidified incubator. Cells were centrifuged, washed with PBS (x2) and lysed with ~40 µL of ice-cold RIPA buffer. Lysates were collected, protein concentration was measured with PIERCE BCA protein assay and samples were analyzed with in-gel fluorescence and GzmA western blotting. […]
All flow cytometry data were collected on BD LSRFortessa and FACSymphony A5 Cell Analyzers and analyzed with FlowJo software. Briefly, cells were processed according to the intended protocols for each experiment. Thereafter, cells were pelleted, fixed in the dark for 20 min at room temperature (Fixation buffer: BioLegend #420801), and pelleted again by centrifugation. Fixed cells were then resuspended in 1x intracellular staining perm wash buffer (BioLegend #421002), followed by centrifugation two times. Fixed/Permeabilized cells were then resuspended in […]

hGzmA = biological target: T2, hGzmA (Homo sapiens, UniProt P12544); experiment: Granzyme A cleavage assay (fluorogenic substrate); assay type: biochemical; conditions: hGzmA 50 nM, inhibitor 200 nM, substrate 100 μM, 50 mM Tris, 150 mM NaCl, 0.01% Triton X-100 pH 8, 15 h, 37 °C, Ex/Em 380/460 nm, mean ± SD n = 3
T2 construct: active, mature form; purchased Enzo Life Sciences ALX-201-118-C010
T2 sequence (P12544 29-262): T1 sequence (P12544 29-262)
Method: Figure 1 GzmA phosphonate and phosphinate inhibitors. A) Synthesis of phosphonate warhead I‐3. B) Synthesis of phosphosphinate warhead I‐4. C) Synthesis of Ac‐IGNR‐PO(OPh)2 1 and Ac‐IGNR‐PO(OPh)Ph 2. D) GzmA inhibition. hGzmA (50 nM) was incubated with inhibitor 1 or 2 (200 nM) and GzmA fluorogenic substrate (Ac‐Oic‐Gly‐Pro‐Arg‐PABA‐MU, 100 μM) for 15 h at 37 °C. Fluorescence at Ex/Em: 380/460 nm was recorded for residual GzmA proteolytic activity.
A. Granzyme A cleavage assay
Briefly, hGzmA (50 nM) was incubated with either inhibitor 1 or 2 (200 nM), and GzmA fluorogenic substrate […] (100 µM) in 50 mM Tris, 150 mM NaCl, 0.01% Triton X-100 (pH 8) for 15 hr at 37 °C. Recorded fluorescence at Ex/Em: 380/460 nm for residual GzmA […]
Cat. No. CRL-2570) and 4T1 (ATCC Cat. No. CRL-2539) cells were cultured in RPMI supplemented with 10% fetal bovine serum (FBS), 1% penicillin/streptomycin (PS), and 2 mM L-glutamine, while HEK293T and MDA-MB-231 cells (ATCC Cat. No. HTB-26) were cultured in DMEM supplemented likewise as described above. […] The supernatant was collected, and protein concentration was measured using a Pierce BCA protein assay. […]
C. In-gel fluorescence imaging […]
Conditions for probe/inhibitor treatment for in-gel fluorescence analysis: Inhibitors and probes were incubated with active (or pro-) GzmA followed by treatment with 4X SDS reducing sample buffer. […]

Row | SMILES | Blocking of ABP labeling of hGzmA by inhibitor pretreatment [1] | Inhibition of GzmA‐mediated cleavage of a fluorogenic substrate (residual GzmA proteolytic activity) (hGzmA)
1 | CC[C@H](C)[C@H](NC(C)=O)C(=O)NCC(=O)N[C@@H](CC(N)=O)C(=O)NC(CCCNC(=N)N)P(=O)(Oc1ccccc1)Oc1ccccc1 (stereo partly shown) [compound 1, Ac‐IGNR‐PO(OPh)2] | competitively blocked | comparable potency
2 | CC[C@H](C)[C@H](NC(C)=O)C(=O)NCC(=O)N[C@@H](CC(N)=O)C(=O)NC(CCCNC(=N)N)P(=O)(Oc1ccccc1)c1ccccc1 (stereo partly shown) [compound 2, Ac‐IGNR‐PO(OPh)Ph] | competitively blocked | comparable potency
